According to PMC8956739, “A synthetic lipopeptide targeting top-priority multidrug-resistant Gram-negative pathogens” (Nature Communications, 2022):
≈ marks a conversion by molar mass, not a printed value. Residues, ends and D or L forms follow the SMILES beside them.

Columns and labels:
[1] = test system: A. baumannii AB5075; test: Transcriptomic analysis (RNA-Seq) of bacteria; format: cell-based, Acinetobacter baumannii; conditions: for logFC (Differential gene expression for all genes), Geneid ABUW_RS00005 / logFC (Differential gene expression for all genes), Geneid ABUW_RS00020 / logFC (Fold change), gene ABUW_RS00010 / logFC (Fold change), gene ABUW_RS00030 / logFC (Fold change), gene ABUW_RS00035 / logFC (Fold change), gene recF (ABUW_RS00015) / 4h_1h logFC (Differential gene expression for all genes), Geneid ABUW_RS00005 / 4h_1h logFC (Differential gene expression for all genes), Geneid ABUW_RS00010 / 4h_1h logFC (Differential gene expression for all genes), Geneid ABUW_RS00015 / 4h_1h logFC (Differential gene expression for all genes), Geneid ABUW_RS00020: RNA-Seq A. baumannii AB5075; for log2FC, gene ABUW_RS01945 (acyl-CoA thioesterase II) / log2FC, gene ABUW_RS02545 (acyl-CoA thioesterase) / log2FC, gene ABUW_RS05045 (acyl-CoA thioesterase) / log2FC, gene ABUW_RS17575 (acyl-CoA thioesterase): pathway Fatty Acid and Lipid Degradation; for 4h_1h logFC (Differential gene expression for all genes), Geneid ABUW_RS00005 / 4h_1h logFC (Differential gene expression for all genes), Geneid ABUW_RS00010 / 4h_1h logFC (Differential gene expression for all genes), Geneid ABUW_RS00015 / 4h_1h logFC (Differential gene expression for all genes), Geneid ABUW_RS00020: 4h vs 1h
Procedure: Mid-log phase A. baumannii AB5075 (~10^8 CFU/mL) in CaMHB was treated with colistin (2 and 8 μg/mL), F287, F319 or F365 (equimolar concentration to colistin) for 1 and 4 h. Total RNA was extracted using TRIzol Reagent (Invitrogen, USA) and RNeasy Mini Kit (Qiagen, Germany). Quality check of RNA samples was conducted with NanoDrop (Thermo Fisher Scientific, USA) and Agilent 2100 Bioanalyzer (Agilent Technologies, USA) for sequencing (150 bp paired-end) at Genewiz (Shanghai, China). Raw reads were aligned to A. baumannii AB5075 genome (GCF_000963815, https://www.ncbi.nlm.nih.gov/assembly/GCF_000963815.1/) using subread-aligner (subread 2.0.1) and summarized by featureCounts (subread 2.0.1). Principal component analysis (PCA) was conducted with mixOmics 6.14.1 in R. Differentially expressed genes were determined using limma 3.46.0 with a combination of fold change ≥ 2 and false discovery rate (FDR, by Benjamini–Hochberg algorithm) adjusted P-value ≤ 0.05 (n = 3). Enrichment analysis of gene differential expression in AB5075 was conducted using BioCyc (A. baumannii AB5075, version 25.5). UpSetR 1.4.0, ComplexHeatmap 2.6.2 and circlize 0.4.13 were used for data visualization. Raw data were deposited in Short Reads Archive (SRA) database under accession numbers SRR15235669-SRR15235725.

[2] = test system: Swiss mice, kidney; test: Nephrotoxicity in mice (kidney histopathology); format: in vivo, mouse
In short: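 Female Swiss mice (7-week-old, 22–28 g) received lipopeptides in saline either s.c. at 12 mg/kg ×6 every 2 h (total 72 mg/kg, n = 3) or i.p. at 20 or 25 mg/kg ×6 every 2 h (total 120 mg/kg, n = 6; 150 mg/kg, n = 3). Right kidney collected 20 h after last dose, fixed in 10% buffered formalin (pH 7.4), histology scored blinded.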

[3] = test system: P. aeruginosa ATCC 27853; format: cell-based, Pseudomonas aeruginosa; conditions: ATCC 27853
In short: (§1)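 Susceptibility: microdilution MIC in CaMHB.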

[4] = test system: P. aeruginosa FADDI-PA025; format: cell-based, Pseudomonas aeruginosa; conditions: FADDI-PA025
In short: as §1

[5] = test system: P. aeruginosa FADDI-PA038; format: cell-based, Pseudomonas aeruginosa; conditions: FADDI-PA038
In short: as §1

CCCCCCCC(=O)N[C@@H](CCN)C(=O)N[C@H](C(=O)N[C@@H](CCN)C(=O)N[C@H]1CCNC(=O)[C@H]([C@@H](C)O)NC(=O)[C@H](CCN)NC(=O)[C@H](CCN)NC(=O)[C@H](CC)NC(=O)[C@@H](CC(C)C)NC(=O)[C@H](CCN)NC1=O)[C@@H](C)O [Lipopeptide F319] (HELM PEPTIDE1{[CCCCCCCC(=O)[*:2]].[Dab].T.[Dab].[Dab].[Dab].[dL].[Abu].[Dab].[Dab].T}$PEPTIDE1,PEPTIDE1,5:R3-11:R2$$$V2.0)
logFC (Differential gene expression for all genes), Geneid ABUW_RS00005 ([1]; H vs Cont, 1h): -0.09763 | logFC (Differential gene expression for all genes), Geneid ABUW_RS00020 ([1]; H vs Cont, 1h): 0.4439 | logFC (Fold change), gene ABUW_RS00010 ([1]; H vs Cont, 1h): 0.5437 | logFC (Fold change), gene ABUW_RS00030 ([1]; H vs Cont, 1h): -0.5665 | logFC (Fold change), gene ABUW_RS00035 ([1]; H vs Cont, 1h): 1.083 | logFC (Fold change), gene recF (ABUW_RS00015) ([1]; H vs Cont, 1h): -0.2736 | log2FC, gene ABUW_RS01945 (acyl-CoA thioesterase II) ([1]; H vs Cont, 1h): 0.4348 | log2FC, gene ABUW_RS02545 (acyl-CoA thioesterase) ([1]; H vs Cont, 1h): 1.57 | log2FC, gene ABUW_RS05045 (acyl-CoA thioesterase) ([1]; H vs Cont, 1h): 0.3422 | log2FC, gene ABUW_RS17575 (acyl-CoA thioesterase) ([1]; H vs Cont, 1h): -0.5597 | logFC (Differential gene expression for all genes), Geneid ABUW_RS00005 ([1]; H vs Cont, 4h): -0.2808 | logFC (Differential gene expression for all genes), Geneid ABUW_RS00020 ([1]; H vs Cont, 4h): -0.01751 | logFC (Fold change), gene ABUW_RS00010 ([1]; H vs Cont, 4h): 1.173 | logFC (Fold change), gene ABUW_RS00030 ([1]; H vs Cont, 4h): -1.885 | logFC (Fold change), gene ABUW_RS00035 ([1]; H vs Cont, 4h): 0.8498 | logFC (Fold change), gene recF (ABUW_RS00015) ([1]; H vs Cont, 4h): -1.612 | log2FC, gene ABUW_RS01945 (acyl-CoA thioesterase II) ([1]; H vs Cont, 4h): -0.7411 | log2FC, gene ABUW_RS02545 (acyl-CoA thioesterase) ([1]; H vs Cont, 4h): 1.194 | log2FC, gene ABUW_RS05045 (acyl-CoA thioesterase) ([1]; H vs Cont, 4h): 0.6506 | log2FC, gene ABUW_RS17575 (acyl-CoA thioesterase) ([1]; H vs Cont, 4h): -1.957 | 4h_1h logFC (Differential gene expression for all genes), Geneid ABUW_RS00005 ([1]; H): -0.8466 | 4h_1h logFC (Differential gene expression for all genes), Geneid ABUW_RS00010 ([1]; H): 0.6539 | 4h_1h logFC (Differential gene expression for all genes), Geneid ABUW_RS00015 ([1]; H): -1.958 | 4h_1h logFC (Differential gene expression for all genes), Geneid ABUW_RS00020 ([1]; H): 0.139 | logFC (Differential gene expression for all genes), Geneid ABUW_RS00005 ([1]; L vs Cont, 1h): 0.2742 | logFC (Differential gene expression for all genes), Geneid ABUW_RS00020 ([1]; L vs Cont, 1h): 0.3388 | logFC (Fold change), gene ABUW_RS00010 ([1]; L vs Cont, 1h): 0.1491 | logFC (Fold change), gene ABUW_RS00030 ([1]; L vs Cont, 1h): 0.2512 | logFC (Fold change), gene ABUW_RS00035 ([1]; L vs Cont, 1h): -0.1567 | logFC (Fold change), gene recF (ABUW_RS00015) ([1]; L vs Cont, 1h): 0.1396 | log2FC, gene ABUW_RS01945 (acyl-CoA thioesterase II) ([1]; L vs Cont, 1h): 0.4255 | log2FC, gene ABUW_RS02545 (acyl-CoA thioesterase) ([1]; L vs Cont, 1h): 0.2059 | log2FC, gene ABUW_RS05045 (acyl-CoA thioesterase) ([1]; L vs Cont, 1h): -0.2352 | log2FC, gene ABUW_RS17575 (acyl-CoA thioesterase) ([1]; L vs Cont, 1h): 0.153 | logFC (Differential gene expression for all genes), Geneid ABUW_RS00005 ([1]; L vs Cont, 4h): 0.0635 | logFC (Differential gene expression for all genes), Geneid ABUW_RS00020 ([1]; L vs Cont, 4h): -0.109 | logFC (Fold change), gene ABUW_RS00010 ([1]; L vs Cont, 4h): 0.1358 | logFC (Fold change), gene ABUW_RS00030 ([1]; L vs Cont, 4h): 0.06806 | logFC (Fold change), gene ABUW_RS00035 ([1]; L vs Cont, 4h): 0.1484 | logFC (Fold change), gene recF (ABUW_RS00015) ([1]; L vs Cont, 4h): -0.1014 | log2FC, gene ABUW_RS01945 (acyl-CoA thioesterase II) ([1]; L vs Cont, 4h): 0.08809 | log2FC, gene ABUW_RS02545 (acyl-CoA thioesterase) ([1]; L vs Cont, 4h): -0.3183 | log2FC, gene ABUW_RS05045 (acyl-CoA thioesterase) ([1]; L vs Cont, 4h): 0.2863 | log2FC, gene ABUW_RS17575 (acyl-CoA thioesterase) ([1]; L vs Cont, 4h): 0.3089 | 4h_1h logFC (Differential gene expression for all genes), Geneid ABUW_RS00005 ([1]; L): -0.004361 | 4h_1h logFC (Differential gene expression for all genes), Geneid ABUW_RS00010 ([1]; L): -0.867 | 4h_1h logFC (Differential gene expression for all genes), Geneid ABUW_RS00015 ([1]; L): -0.3076 | 4h_1h logFC (Differential gene expression for all genes), Geneid ABUW_RS00020 ([1]; L): -0.09503 | Kidney histopathology (SQS Score) ([2]; 72 mg/kg/d subcutaneously in six divided doses every 2 h, n = 3): +1 (SQS + 1 = mild damage (overall score, 1 to <15)) | Kidney histopathology, mice with the SQS score ([2]; mouse, in vivo): 1/3 | MIC P. aeruginosa ATCC 27853 [3]: 0.5 µg/mL (≈ 0.443 µM) | MIC, No Survanta [3]: 1 µg/mL (≈ 0.887 µM) | MIC P. aeruginosa FADDI-PA025 [4]: 4 µg/mL (≈ 3.55 µM) | MIC P. aeruginosa FADDI-PA038 [5]: 4 µg/mL (≈ 3.55 µM)
